Article PMC12221116, “Novel Quinazolinones Active against Multidrug‐Resistant Mycobacterium Tuberculosis: Synthesis, Antimicrobial Evaluation, and in Silico Exploration of Penicillin‐Binding Protein 1A as a Potential Target” (Chemmedchem, 2025)
In brackets after ≈: the same amount, converted by molar mass. Where two headings read alike, the source gives them in different places.

Experiments:
Mtb H37Rv = assay: Microplate Alamar Blue assay, MIC; format: cell-based, Mycobacterium tuberculosis; details: Mycobacterium tuberculosis, H37RV
Mtb H37Ra = assay: Microdilution broth resazurin assay, MIC; format: cell-based, Mycobacterium tuberculosis; details: Mycobacterium tuberculosis, H37RA
M. kansasii = assay: Microplate Alamar Blue assay, MIC; format: cell-based, Mycobacterium kansasii; details: Mycobacterium kansasii; read-out: Antimycobacterial Activity MIC M. kans.
M. avium = assay: Microdilution broth resazurin assay, MIC; format: cell-based, Mycobacterium avium; details: Mycobacterium avium; read-out: Antimycobacterial Activity MIC M. avium
M. smegmatis = assay: Microdilution broth resazurin assay, MIC; format: cell-based, Mycolicibacterium smegmatis
M. aurum = assay: Microdilution broth resazurin assay, MIC; format: cell-based, Mycolicibacterium aurum; details: Mycolicibacterium aurum; read-out: Antimycobacterial Activity MIC M. aurum
MDR Mtb H37Rv = assay: microbe, parasite or virus in culture; format: cell-based; details: Mycobacterium tuberculosis, read-out: MIC MDR Mtb H37Rv
Bacteria, incl. SA = assay: Antibacterial microdilution screening (eight strains); format: cell-based; details: read after 24 and 48 h, highest tested concentration 500 μM
Fungi = assay: Antifungal microdilution screening (eight strains); format: cell-based; details: read after 24 and 48 h (72 and 120 h for TI), highest tested concentration 500 μM
HepG2 [1] = assay: cells; details: Homo sapiens
MRC-5 [2] = assay: cells; details: Homo sapiens
HepG2 [3] = details: HepG2
MRC-5 [4] = details: MRC-5
[5] = tested on: Candida albicans ATCC 24433, CCM 8320; assay: Antifungal microdilution broth, quality standards; format: cell-based; details: 24 h
[6] = tested on: Candida krusei ATCC 6258, CCM 8271; assay: Antifungal microdilution broth, quality standards; format: cell-based
[7] = tested on: Candida parapsilosis ATCC 22019, CCM 8260; assay: Antifungal microdilution broth, quality standards; format: cell-based
[8] = tested on: Candida tropicalis ATCC 750, CCM 8264; assay: Antifungal microdilution broth, quality standards; format: cell-based; details: 24 h; for MIC: read-out: MIC, visual detection, Candida tropicalis
[9] = tested on: Aspergillus fumigatus ATCC 204305; assay: Antifungal microdilution broth, quality standards; format: cell-based; details: ATCC204305, 48 h; for MIC: read-out: MIC, visual detection, Aspergillus fumigatus
[10] = tested on: Aspergillus flavus CCM 8363; assay: Antifungal microdilution broth, quality standards; format: cell-based; details: CCM8363, 48 h; for MIC: read-out: MIC, visual detection, Aspergillus flavus
[11] = tested on: Lichtheimia corymbifera CCM 8077; assay: Antifungal microdilution broth, quality standards; format: cell-based; details: CCM8077, 48 h; for MIC: read-out: MIC, visual detection, Lichtheimia corymbifera
[12] = tested on: Trichophyton interdigitale ATCC 9533, CCM 8377; assay: Antifungal microdilution broth, quality standards; format: cell-based; details: 120 h; for MIC: read-out: MIC, visual detection, Trichophyton interdigitale
[13] = tested on: Staphylococcus aureus subsp. aureus ATCC 29213, CCM 4223; assay: Antibacterial microdilution broth, quality standards; format: cell-based; details: 24 h
[14] = tested on: Staphylococcus aureus subsp. aureus, MRSA ATCC 43300, CCM 4750; assay: as above; format: cell-based; details: 24 h
[15] = tested on: Staphylococcus epidermidis ATCC 12228, CCM 4418; assay: as above; format: cell-based; details: 24 h
[16] = tested on: Enterococcus faecalis ATCC 29212, CCM 4224; assay: as above; format: cell-based; details: 24 h
[17] = tested on: Escherichia coli ATCC 25922, CCM 3954; assay: as above; format: cell-based; details: 24 h
[18] = tested on: Klebsiella pneumoniae ATCC 10031, CCM 4415; assay: as above; format: cell-based; details: 24 h
[19] = tested on: Acinetobacter baumannii ATCC 19606, DSM 30007; assay: as above; format: cell-based; details: 24 h
[20] = tested on: Pseudomonas aeruginosa ATCC 27853, CCM 3955; assay: as above; format: cell-based; details: 24 h
[21] = Microplate Alamar Blue assay, read-out: Antimycobacterial Activity MIC Mtb H37Rv
[22] = calculated from the measured MIC in mass concentration units, read-out: MIC Mtb H37Rv
[23] = calculated from the measured MIC in mass concentration units, read-out: MIC Mtb H37Ra
[24] = read-out: Antimycobacterial Activity MIC Mtb H37Ra
[25] = HepG2, 24 h, read-out: IC50 for HepG2 [24 h]
[26] = MRC5, 24 h, read-out: IC50 for MRC-5 [24 h]

Cc1nc2cc(Cl)ccc2c(=O)n1Cc1ccc(F)cc1 [Compound 19]
MIC (Mtb H37Rv; [21]): 25 µg/mL
MIC (Mtb H37Rv; [22]): 83 µM
MIC (Mtb H37Ra; [23]): 26 µM
MIC (Mtb H37Ra; [24]): 7.81 µg/mL
MIC (M. kansasii): > 100 µg/mL
MIC (M. avium): 15.6 µg/mL (≈ 51.6 µM)
MIC (M. smegmatis; Mycolicibacterium smegmatis; read-out: Antimycobacterial Activity MIC M. smeg.): 31.2 µg/mL (≈ 103 µM)
MIC (M. aurum): 31.2 µg/mL (≈ 103 µM)
MIC (MDR Mtb H37Rv): 41 to 165 µM (≈ 12.4 to 50 µg/mL)
MIC Bacteria, incl. SA (Bacteria, incl. SA): inactive
MIC Fungi (Fungi): inactive
IC50 (HepG2 [1]; [25]): > 50 µM
IC50 (HepG2 [1]; HepG2, 72 h, read-out: IC50 for HepG2 [72 h]): > 50 µM
IC50 (MRC-5 [2]; [26]): > 100 µM
IC50 (MRC-5 [2]; MRC5, 72 h, read-out: IC50 for MRC-5 [72 h]): > 100 µM

Cc1nc2cc(Cl)ccc2c(=O)n1/N=C/c1ccc(O)c([N+](=O)[O-])c1 [Compound 25]
MIC (Mtb H37Rv; [21]): 12.5 µg/mL
MIC (Mtb H37Rv; [22]): 35 µM
MIC (Mtb H37Ra; [23]): 87 µM
MIC (Mtb H37Ra; [24]): 31.2 µg/mL
MIC (M. kansasii): > 100 µg/mL
MIC (M. avium): 62.5 µg/mL (≈ 174 µM)
MIC (M. smegmatis; Mycolicibacterium smegmatis, read-out: Antimycobacterial Activity MIC M. smeg.): 31.2 µg/mL (≈ 87.1 µM)
MIC (M. aurum): ≥ 62.5 µg/mL
MIC (MDR Mtb H37Rv): 17 to 70 µM (≈ 6.1 to 25.1 µg/mL)
MIC Bacteria, incl. SA (Bacteria, incl. SA): inactive
MIC Fungi (Fungi): inactive
nontoxic for human cell lines up to (HepG2 [3]): up to 1000 μM
nontoxic for human cell lines up to (MRC-5 [4]): up to 1000 μM
IC50 (HepG2 [1]; [25]): > 1000 µM
IC50 (MRC-5 [2]; [26]): > 1000 µM

C[C@@H]1[C@H](O)[C@@H](C)/C=C/C=C/C=C/C=C/C=C/C=C/C=C/[C@H](O[C@@H]2O[C@H](C)[C@@H](O)[C@H](N)[C@@H]2O)C[C@@H]2O[C@](O)(C[C@@H](O)C[C@@H](O)[C@H](O)CC[C@@H](O)C[C@@H](O)CC(=O)O[C@H]1C)C[C@H](O)[C@H]2C(=O)O [amphotericin B]
IC90 ([5]; read-out: IC90, spectrophotometric detection, Candida albicans): 0.5 µg/mL (≈ 0.541 µM)
IC90 ([6]; Pichia kudriavzevii, 24 h; read-out: IC90, spectrophotometric detection, Candida krusei): 1 µg/mL (≈ 1.08 µM)
MIC ([6]; Pichia kudriavzevii, 24 h; read-out: MIC, visual detection, Candida krusei): 1 µg/mL (≈ 1.08 µM)
IC90 ([7]; Lodderomyces parapsilosis, 24 h; read-out: IC90, spectrophotometric detection, Candida parapsilosis): 0.5 µg/mL (≈ 0.541 µM)
MIC ([7]; Lodderomyces parapsilosis, 24 h; read-out: MIC, visual detection, Candida parapsilosis): 0.5 µg/mL (≈ 0.541 µM)
IC90 ([8]; read-out: IC90, spectrophotometric detection, Candida tropicalis): 1 µg/mL (≈ 1.08 µM)
MIC [8]: 1 µg/mL (≈ 1.08 µM)
IC90 ([9]; read-out: IC90, spectrophotometric detection, Aspergillus fumigatus): 1 µg/mL (≈ 1.08 µM)
MIC [9]: 1 µg/mL (≈ 1.08 µM)
IC90 ([10]; read-out: IC90, spectrophotometric detection, Aspergillus flavus): 8 µg/mL (≈ 8.66 µM)
MIC [10]: 8 µg/mL (≈ 8.66 µM)
IC90 ([11]; read-out: IC90, spectrophotometric detection, Lichtheimia corymbifera): 0.5 µg/mL (≈ 0.541 µM)
MIC [11]: 0.5 µg/mL (≈ 0.541 µM)
IC90 ([12]; 26 °C, read-out: IC90, spectrophotometric detection, Trichophyton interdigitale): 2 µg/mL (≈ 2.16 µM)
MIC ([12]; 26 °C): 2 µg/mL (≈ 2.16 µM)

CNC(C)C1CCC(N)C(OC2C(N)CC(N)C(OC3OCC(C)(O)C(NC)C3O)C2O)O1 (stereo not drawn) [gentamicin]
MIC ([13]; 95% growth inhibition, read-out: MIC spectrophotometric detection, S. aureus): 1 µg/mL (≈ 2.09 µM)
MIC ([13]; naked eye, read-out: MIC visual detection, S. aureus): 1 µg/mL (≈ 2.09 µM)
MIC ([14]; 95% growth inhibition, read-out: MIC spectrophotometric detection, MRSA): 16 to 32 µg/mL (≈ 33.5 to 67 µM)
MIC ([14]; naked eye, read-out: MIC visual detection, MRSA): 16 to 32 µg/mL (≈ 33.5 to 67 µM)
MIC ([15]; 95% growth inhibition, read-out: MIC spectrophotometric detection, S. epidermidis): > 8 µg/mL
MIC ([15]; naked eye, read-out: MIC visual detection, S. epidermidis): > 8 µg/mL
MIC ([16]; read-out: MIC spectrophotometric detection, E. faecalis): 16 µg/mL (≈ 33.5 µM)
MIC ([16]; naked eye, read-out: MIC visual detection, E. faecalis): 8 µg/mL (≈ 16.8 µM)
MIC ([17]; 95% growth inhibition, read-out: MIC spectrophotometric detection, E. coli): 1 to 2 µg/mL (≈ 2.09 to 4.19 µM)
MIC ([17]; naked eye, read-out: MIC visual detection, E. coli): 1 to 2 µg/mL (≈ 2.09 to 4.19 µM)
MIC ([18]; 95% growth inhibition, read-out: MIC spectrophotometric detection, K. pneumoniae): > 8 µg/mL
MIC ([18]; naked eye, read-out: MIC visual detection, K. pneumoniae): > 8 µg/mL
MIC ([19]; 95% growth inhibition, read-out: MIC spectrophotometric detection, A. baumannii): 2 µg/mL (≈ 4.19 µM)
MIC ([19]; naked eye, read-out: MIC visual detection, A. baumannii): 2 µg/mL (≈ 4.19 µM)
MIC ([20]; 95% growth inhibition, read-out: MIC spectrophotometric detection, P. aeruginosa): 0.5 µg/mL (≈ 1.05 µM)
MIC ([20]; naked eye, read-out: MIC visual detection, P. aeruginosa): 0.5 µg/mL (≈ 1.05 µM)

C[C@@H](c1ncncc1F)[C@](O)(Cn1cncn1)c1ccc(F)cc1F [voriconazole]
IC50 ([5]; read-out: IC50, spectrophotometric detection, Candida albicans): 0.03 µg/mL (≈ 0.0859 µM)
MIC ([5]; read-out: MIC, visual detection, Candida albicans): > 16 µg/mL
MIC ([6]; Pichia kudriavzevii, 24 h, read-out: MIC, visual detection, Candida krusei): 0.5 µg/mL (≈ 1.43 µM)
IC50 ([7]; Lodderomyces parapsilosis, 24 h, read-out: IC50, spectrophotometric detection, Candida parapsilosis): 0.03 µg/mL (≈ 0.0859 µM)
MIC ([7]; Lodderomyces parapsilosis, 24 h, read-out: MIC, visual detection, Candida parapsilosis): 8 µg/mL (≈ 22.9 µM)
MIC [8]: > 16 µg/mL
IC50 ([9]; read-out: IC50, spectrophotometric detection, Aspergillus fumigatus): 0.5 µg/mL (≈ 1.43 µM)
MIC [9]: 1 µg/mL (≈ 2.86 µM)
IC50 ([10]; read-out: IC50, spectrophotometric detection, Aspergillus flavus): 4 µg/mL (≈ 11.5 µM)
MIC [10]: > 16 µg/mL
IC50 ([11]; read-out: IC50, spectrophotometric detection, Lichtheimia corymbifera): > 16 µg/mL
MIC [11]: > 16 µg/mL
IC50 ([12]; read-out: IC50, spectrophotometric detection, Trichophyton interdigitale): > 16 µg/mL
MIC [12]: > 16 µg/mL
